Three compounds from paper PMC8890504, “Evolution of Brain-Expressed Biogenic Amine Receptors into Olfactory Trace Amine-Associated Receptors” (Molecular Biology and Evolution, 2022) can be followed below.

The target in one assay is shark TARL2 (Chiloscyllium punctatum, UniProt A0A401SGR3). Nature of the assay: Cell-based receptor activation reporter assay (SEAP / Dual-Glo luciferase). More on the design: species or system bamboo shark. As for the experimental part:
(§1) Fluorescence was measured with a BioTek Microplate reader.

The target in another assay is TARLL1b (Petromyzon marinus, UniProt A0AAJ7TCG4). Described as above. Details: species or system sea lamprey. The following applies: TARLL1b. As to the method: as §1
TARLL1b, sequence (A0AAJ7TCG4 entry or part of it): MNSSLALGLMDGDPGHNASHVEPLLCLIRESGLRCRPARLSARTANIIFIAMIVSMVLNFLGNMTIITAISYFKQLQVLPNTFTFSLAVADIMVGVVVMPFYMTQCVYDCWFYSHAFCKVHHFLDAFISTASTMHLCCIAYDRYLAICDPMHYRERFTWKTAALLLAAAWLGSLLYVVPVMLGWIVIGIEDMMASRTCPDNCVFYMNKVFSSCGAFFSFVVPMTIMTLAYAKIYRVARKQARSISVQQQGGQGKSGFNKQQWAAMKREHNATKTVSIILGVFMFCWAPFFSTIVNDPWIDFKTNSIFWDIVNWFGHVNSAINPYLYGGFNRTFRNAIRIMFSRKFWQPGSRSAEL
The target in a further assay is mouse TAAR1 (Mus musculus, UniProt Q923Y8). Nature of the assay: cell-based. Conditions: mTAAR1. From the text:
(§2) Next, we conducted high-throughput screening to further explore the functional properties of these aminergic receptors. We cloned 248 TAARs from 11 mammals (human, mouse, rat, guinea pig, hamster, cat, horse, rabbit, sheep, rhesus, and wild boar), two reptiles (alligator and chicken), six teleosts (zebrafish, catfish, fugu, medaka, salmon, and pufferfish), one lobed-finned fish (coelacanth), one holost fish (spotted gar), and one cartilaginous fish (bamboo shark) (fig. 2A). We also cloned eight TARLs from coelacanth, zebrafish, catfish, fugu, medaka, spotted gar, shark, and 28 TARLLs from sea lamprey (supplementary table S2, Supplementary Material online). In addition, we cloned two HTR4s from mouse and zebrafish. We then challenged all of the cloned receptors with a ligand library comprised 97 amines at 100 µM.
We then compared the responses of HTR4 from mouse and zebrafish, TARL1 from zebrafish, catfish, fugu, medaka, spotted gar, and coelacanth, TARL2 from coelacanth and shark, TAAR1 from mouse and zebrafish to the 16 ligands at 10 µM (fig. 5B).
(§3) HEK293 cells were plated onto poly-D-lysine (Sigma–Aldrich) preincubated 96-well plates (Corning) with 50 µl growth medium (DMEM medium with 10% BCS and 5% penicillin–streptomycin solution) and cultured for 18–24 h. Receptor plasmids were cotransfected with Cre-SEAP plasmid using polyethylenimine (PEI, Polysciences) and incubated at 37 °C with 5% CO2. About 4 h later, cells were incubated with or without test compounds diluted in serum-free DMEM for 48 h, followed by incubating for 2 h at 70 °C. After returning to room temperature, 50 µl supernatant from each well was incubated with an equal volume of 0.3 mM 4-methylumbelliferyl phosphate (4-MUP, Sigma–Aldrich) in 2 M diethanolamine bicarbonate (Sigma–Aldrich), pH 10.0 for 15 min. Fluorescence was measured with a BioTek Microplate reader.
(§4) Hana3A cells were plated onto 96-well plates (Greiner bio-one) with 50 µl growth medium (DMEM medium with 10% BCS and 5% penicillin–streptomycin solution with puromycin) and cultured at 37 °C with 5% CO2. After 18–24 h, cells in each well were cotransfected with 50 ng receptor plasmid, 10 ng CRE-Luc, 10 ng pRL-SV40, and 10 ng mRTPs using Lipofectamine 2000 (Invitrogen), and incubated for 18 h. Medium was then replaced by 25 µl CD293 (Invitrogen) containing 1% glutamine with or without test compounds for 4 h. The chemiluminescence of firefly luciferase and renilla luciferase were measured with a Biotek Microplate reader using the Dual-Glo Luciferase Assay System (Promega).

Another assay addresses (UniProt Z9G6W3R3V9). Put plainly: Cell-based receptor activation reporter assay (SEAP / Dual-Glo luciferase). The following applies: coelacanth TARL1. As for the experimental part:
as §1

A further assay addresses catfish TAAR13g (Ictalurus punctatus, UniProt A0A2D0SG81). The description is as above. As for the experimental part: as §1
For another assay, the target named is coelacanth TAARC1b (Latimeria chalumnae, UniProt H3A8V0). The description is as above. As for the experimental part:
as §1

For the next assay, the target named is coelacanth TARL2 (Latimeria chalumnae, UniProt H3AWX3). The assay is described as above. As for the experimental part: as §1
coelacanth TARL2, sequence (H3AWX3 entry or part of it): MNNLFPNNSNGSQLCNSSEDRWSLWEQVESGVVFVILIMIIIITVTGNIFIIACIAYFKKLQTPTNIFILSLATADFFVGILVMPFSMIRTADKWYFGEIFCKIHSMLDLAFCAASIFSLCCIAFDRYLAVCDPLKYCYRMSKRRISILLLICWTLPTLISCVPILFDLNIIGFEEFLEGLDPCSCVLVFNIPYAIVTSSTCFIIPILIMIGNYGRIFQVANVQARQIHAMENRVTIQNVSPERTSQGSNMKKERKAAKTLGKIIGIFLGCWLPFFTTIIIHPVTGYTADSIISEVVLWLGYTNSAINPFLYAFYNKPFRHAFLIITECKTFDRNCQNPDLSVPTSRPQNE
A further assay deals with spotted gar TARL1 (Lepisosteus oculatus, UniProt W5NNR6). Described as above. As for the experimental part:
as §1

The target in another assay is zebrafish TAAR1 (Danio rerio, UniProt Q5QNN1). The description is as above. Conditions: zTAAR1. As for the experimental part:
as §1

Another assay addresses zebrafish TARL1 (Danio rerio, UniProt A0A8M1Q794). The description is as above. As for the experimental part: as §1
In another assay the target is mouse HTR4 (Mus musculus, UniProt P97288). Put plainly: cell-based.
mouse HTR4, sequence (P97288 whole entry): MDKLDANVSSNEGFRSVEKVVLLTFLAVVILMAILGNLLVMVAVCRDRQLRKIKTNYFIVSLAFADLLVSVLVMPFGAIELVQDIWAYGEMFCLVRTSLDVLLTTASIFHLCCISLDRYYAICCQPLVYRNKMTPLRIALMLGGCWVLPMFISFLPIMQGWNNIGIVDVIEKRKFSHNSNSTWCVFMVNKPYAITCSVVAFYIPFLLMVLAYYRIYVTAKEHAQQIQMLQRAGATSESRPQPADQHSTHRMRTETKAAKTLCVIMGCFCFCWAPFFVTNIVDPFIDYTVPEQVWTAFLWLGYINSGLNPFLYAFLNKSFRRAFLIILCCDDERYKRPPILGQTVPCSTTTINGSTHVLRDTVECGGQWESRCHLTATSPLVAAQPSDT
Source text: as §2, §3, §4

For a further assay, the system named is TARL1. Nature of the assay: Response to 16 ligands at 10 µM, luciferase assay. Type of assay: cell-based. The following applies: fig. 5B. As to the method:
Ligand profiles and expression patterns of HTR4, TARL, and TAAR1. (A) qPCR analysis of different receptors in zebrafish tissues. Gapdh serves as a control. (B) Response of HTR4, TARL, TAARC1, and TAAR1 to 16 ligands at 10 μM. The heatmap is based on the ratio of fluorescence intensity of ligand–receptor interaction and no ligand controls in the luciferase assay. […] (C) PhyloPCA analysis on the responses of HTR4, TARL, TAARC1, and TAAR1 to these 16 ligands. […] Dots colored by receptor clades represent the ligand responses of receptors on the first two PC axes. Ligand eigenvectors are represented by lines and colored according to the ligand clusters. A ligand name is shown at the tip of the line if its eigenvector has a higher contribution (compared with other ligands) to either PC1 or PC2. […] (D) The presence of HTR4, TARL1, TARL2, and TAAR1 in several representative species in vertebrates is plotted. […]
Hana3A cells were plated onto 96-well plates (Greiner bio-one) with 50 µl growth medium (DMEM medium with 10% BCS and 5% penicillin–streptomycin solution with puromycin) and cultured at 37 °C with 5% CO2. […] The chemiluminescence of firefly luciferase and renilla luciferase were measured with a Biotek Microplate reader using the Dual-Glo Luciferase Assay System (Promega).

Another assay deals with medaka TAAR21f. Put plainly: Cell-based receptor activation reporter assay (SEAP / Dual-Glo luciferase). As to the method:
as §1

Another assay deals with spotted gar TAAR1b (Lepisosteus oculatus, UniProt W5NMY1). The assay is described as above. As for the experimental part:
as §1

In the next assay the target is catfish TAAR13f (Ictalurus punctatus, UniProt A0A2D0SGW4). The description is as above. As for the experimental part: as §1
catfish TAAR13f, sequence (A0A2D0SGW4 entry or part of it): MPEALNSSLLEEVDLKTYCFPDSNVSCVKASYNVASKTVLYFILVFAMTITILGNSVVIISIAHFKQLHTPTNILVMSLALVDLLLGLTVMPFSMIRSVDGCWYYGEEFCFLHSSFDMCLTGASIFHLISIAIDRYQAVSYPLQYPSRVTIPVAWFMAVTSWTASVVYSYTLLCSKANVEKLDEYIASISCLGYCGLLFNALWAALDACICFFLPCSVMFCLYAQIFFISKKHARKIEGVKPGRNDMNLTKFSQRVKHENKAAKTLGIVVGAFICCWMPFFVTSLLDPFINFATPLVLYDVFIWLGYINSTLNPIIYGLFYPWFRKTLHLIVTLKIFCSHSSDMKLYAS
The target of a further assay is catfish TAAR13h (Ictalurus punctatus, UniProt A0A2D0SG84). The description is as above. As for the experimental part: as §1
catfish TAAR13h, sequence (A0A2D0SG84 entry or part of it): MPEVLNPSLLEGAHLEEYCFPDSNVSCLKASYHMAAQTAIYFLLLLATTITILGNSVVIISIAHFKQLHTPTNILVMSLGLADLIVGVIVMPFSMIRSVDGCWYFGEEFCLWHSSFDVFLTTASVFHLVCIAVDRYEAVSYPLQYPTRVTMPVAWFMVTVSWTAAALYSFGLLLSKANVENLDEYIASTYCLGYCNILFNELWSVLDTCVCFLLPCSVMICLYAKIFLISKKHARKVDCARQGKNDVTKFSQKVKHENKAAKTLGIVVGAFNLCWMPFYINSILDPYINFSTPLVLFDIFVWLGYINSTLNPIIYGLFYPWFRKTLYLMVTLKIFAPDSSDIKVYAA

SMILES strings stand for the structures.

spotted gar TAAR1b, sequence (W5NMY1 entry or part of it): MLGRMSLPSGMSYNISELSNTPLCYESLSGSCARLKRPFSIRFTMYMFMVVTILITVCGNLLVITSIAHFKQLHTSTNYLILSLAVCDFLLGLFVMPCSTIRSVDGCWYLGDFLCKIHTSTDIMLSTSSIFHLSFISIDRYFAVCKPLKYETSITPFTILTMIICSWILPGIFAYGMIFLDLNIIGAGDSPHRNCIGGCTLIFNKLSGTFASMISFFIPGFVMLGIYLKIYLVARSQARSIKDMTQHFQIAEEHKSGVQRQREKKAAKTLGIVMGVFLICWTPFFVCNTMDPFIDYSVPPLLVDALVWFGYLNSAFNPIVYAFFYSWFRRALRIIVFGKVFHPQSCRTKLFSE
coelacanth TAARC1b, sequence (H3A8V0 entry or part of it): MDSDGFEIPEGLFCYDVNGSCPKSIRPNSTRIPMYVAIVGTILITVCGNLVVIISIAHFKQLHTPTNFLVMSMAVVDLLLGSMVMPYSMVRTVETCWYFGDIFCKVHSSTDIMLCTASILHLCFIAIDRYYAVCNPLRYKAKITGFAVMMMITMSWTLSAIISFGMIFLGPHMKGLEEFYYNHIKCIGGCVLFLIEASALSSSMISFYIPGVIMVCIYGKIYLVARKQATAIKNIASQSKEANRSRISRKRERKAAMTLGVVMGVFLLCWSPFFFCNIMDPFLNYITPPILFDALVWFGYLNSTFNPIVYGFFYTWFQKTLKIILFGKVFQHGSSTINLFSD
catfish TAAR13g, sequence (A0A2D0SG81 entry or part of it): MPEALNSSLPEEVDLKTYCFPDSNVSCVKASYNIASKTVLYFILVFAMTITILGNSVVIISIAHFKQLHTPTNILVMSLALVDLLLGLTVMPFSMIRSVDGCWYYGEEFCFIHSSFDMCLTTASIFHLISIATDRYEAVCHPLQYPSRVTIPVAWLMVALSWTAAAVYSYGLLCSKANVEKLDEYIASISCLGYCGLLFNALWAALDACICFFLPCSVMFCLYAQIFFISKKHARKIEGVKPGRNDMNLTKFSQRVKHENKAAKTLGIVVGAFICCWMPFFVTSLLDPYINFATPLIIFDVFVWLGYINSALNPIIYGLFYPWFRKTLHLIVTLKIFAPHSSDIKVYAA
zebrafish TARL1, sequence (A0A8M1Q794 entry or part of it): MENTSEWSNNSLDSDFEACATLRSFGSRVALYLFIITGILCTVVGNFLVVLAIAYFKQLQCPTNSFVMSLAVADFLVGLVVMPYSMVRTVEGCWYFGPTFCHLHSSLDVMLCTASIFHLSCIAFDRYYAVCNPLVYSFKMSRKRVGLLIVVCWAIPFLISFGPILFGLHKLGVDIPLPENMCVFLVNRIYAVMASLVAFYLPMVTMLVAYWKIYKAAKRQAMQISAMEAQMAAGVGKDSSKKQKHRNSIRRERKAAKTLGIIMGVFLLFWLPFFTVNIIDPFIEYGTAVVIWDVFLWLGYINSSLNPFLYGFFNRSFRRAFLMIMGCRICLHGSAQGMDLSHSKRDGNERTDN
shark TARL2, sequence (A0A401SGR3 entry or part of it): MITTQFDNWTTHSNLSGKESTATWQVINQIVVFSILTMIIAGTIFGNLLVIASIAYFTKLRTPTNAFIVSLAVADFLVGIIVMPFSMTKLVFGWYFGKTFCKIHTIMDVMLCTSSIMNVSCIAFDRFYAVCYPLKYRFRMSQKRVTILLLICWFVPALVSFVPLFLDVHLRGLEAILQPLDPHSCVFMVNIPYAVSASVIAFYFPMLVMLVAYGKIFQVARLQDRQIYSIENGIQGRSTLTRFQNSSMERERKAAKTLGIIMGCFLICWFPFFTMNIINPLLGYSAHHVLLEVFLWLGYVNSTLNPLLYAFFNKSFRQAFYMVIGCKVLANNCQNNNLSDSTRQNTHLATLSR
spotted gar TARL1, sequence (W5NNR6 entry or part of it): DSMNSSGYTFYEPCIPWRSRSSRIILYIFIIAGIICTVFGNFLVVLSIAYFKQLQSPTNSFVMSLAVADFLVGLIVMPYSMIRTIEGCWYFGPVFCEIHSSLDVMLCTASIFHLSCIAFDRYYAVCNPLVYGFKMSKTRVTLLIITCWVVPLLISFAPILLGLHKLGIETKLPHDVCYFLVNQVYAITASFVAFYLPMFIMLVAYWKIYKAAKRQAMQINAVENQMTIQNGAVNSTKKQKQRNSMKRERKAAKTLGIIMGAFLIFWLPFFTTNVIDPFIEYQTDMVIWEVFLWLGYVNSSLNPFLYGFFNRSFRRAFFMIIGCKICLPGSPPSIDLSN
mouse TAAR1, sequence (Q923Y8 whole entry): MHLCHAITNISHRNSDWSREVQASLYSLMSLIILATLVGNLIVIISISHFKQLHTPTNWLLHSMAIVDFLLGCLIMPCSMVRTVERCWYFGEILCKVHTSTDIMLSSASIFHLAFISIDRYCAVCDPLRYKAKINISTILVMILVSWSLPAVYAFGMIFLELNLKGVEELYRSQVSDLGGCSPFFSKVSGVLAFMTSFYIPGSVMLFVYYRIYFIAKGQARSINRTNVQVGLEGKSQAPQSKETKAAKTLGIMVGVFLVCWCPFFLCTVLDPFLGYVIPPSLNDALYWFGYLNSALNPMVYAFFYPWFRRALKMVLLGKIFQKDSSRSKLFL
zebrafish TAAR1, sequence (Q5QNN1 entry or part of it): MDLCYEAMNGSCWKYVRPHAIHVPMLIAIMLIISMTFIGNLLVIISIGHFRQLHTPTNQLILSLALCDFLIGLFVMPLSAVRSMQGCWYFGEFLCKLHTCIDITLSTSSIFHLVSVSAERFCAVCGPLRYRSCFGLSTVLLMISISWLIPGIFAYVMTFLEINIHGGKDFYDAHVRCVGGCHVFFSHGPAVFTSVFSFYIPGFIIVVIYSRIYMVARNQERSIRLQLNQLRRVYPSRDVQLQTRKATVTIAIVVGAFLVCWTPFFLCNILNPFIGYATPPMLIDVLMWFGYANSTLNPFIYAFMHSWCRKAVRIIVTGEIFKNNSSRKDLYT

On to `NCCc1c[nH]c2ccccc12` [Tryptamine, tryptamine], for which the EC50 was around 40 µM at shark TARL2; around 100 µM on TARLL1b; around 28 µM on mouse TAAR1; 18.1 µM at (UniProt Z9G6W3R3V9); around 30 µM on catfish TAAR13g; around 150 µM at coelacanth TAARC1b. The EC50 is around 200 µM on coelacanth TARL2; 3.1 µM at spotted gar TARL1; around 52 µM at zebrafish TAAR1; 0.04 µM on zebrafish TARL1; around 180 µM at mouse HTR4. The TARL1 ligand profile entry in the assay with TARL1 is reported as “ligands include”.
For the compound `NCCc1ccc(O)cc1` [Tyramine, tyramine], the results for the EC50 in the assay with medaka TAAR21f and at spotted gar TAAR1b were 0.09 µM and 0.7 µM, respectively.
`N=C(N)NCCCCN` [Agmatine, agmatine]: the EC50 at catfish TAAR13f came to 0.04 nM; at catfish TAAR13h, 165 µM.
